In publication PMC2865582 (Journal of medicinal chemistry, 2010):

Target: T1, human GVIA iPLA2 (Homo sapiens, UniProt O60733)
T1 sequence (O60733 1-806): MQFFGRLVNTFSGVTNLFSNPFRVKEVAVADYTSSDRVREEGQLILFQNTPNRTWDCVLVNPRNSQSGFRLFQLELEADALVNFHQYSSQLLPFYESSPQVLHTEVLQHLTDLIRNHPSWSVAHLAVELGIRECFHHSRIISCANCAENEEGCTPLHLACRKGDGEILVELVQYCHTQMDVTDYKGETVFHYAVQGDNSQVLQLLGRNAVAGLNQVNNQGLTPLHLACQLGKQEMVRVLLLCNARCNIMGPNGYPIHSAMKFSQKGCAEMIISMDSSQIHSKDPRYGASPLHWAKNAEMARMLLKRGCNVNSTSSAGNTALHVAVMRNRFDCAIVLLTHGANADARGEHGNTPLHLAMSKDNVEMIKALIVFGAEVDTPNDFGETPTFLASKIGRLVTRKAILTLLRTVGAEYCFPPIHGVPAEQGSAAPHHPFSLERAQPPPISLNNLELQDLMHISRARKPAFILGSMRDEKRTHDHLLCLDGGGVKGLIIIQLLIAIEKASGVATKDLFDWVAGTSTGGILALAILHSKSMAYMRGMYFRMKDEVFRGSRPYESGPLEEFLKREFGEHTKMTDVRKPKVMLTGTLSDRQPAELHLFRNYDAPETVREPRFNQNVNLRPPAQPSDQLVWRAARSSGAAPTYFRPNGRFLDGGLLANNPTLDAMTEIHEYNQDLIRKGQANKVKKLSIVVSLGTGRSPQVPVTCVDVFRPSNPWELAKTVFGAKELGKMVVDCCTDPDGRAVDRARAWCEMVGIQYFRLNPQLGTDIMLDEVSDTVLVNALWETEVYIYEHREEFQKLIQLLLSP
Experiment: Mixed micelle-based
Assay type: biochemical

[1] = XI(50) compared with inhibitor 2

Structure (SMILES) | times less potent on GVIA iPLA2 than inhibitor 2 [1] [times] | further results
O=C(CCCOc1ccccc1)C(F)(F)C(F)(F)F [12a, 1,1,1,2,2-Pentafluoro-6-phenoxyhexan-3-one] | 2.5 | 
O=C(CCCCc1ccc2ccccc2c1)C(F)(F)F [12g, 1,1,1-Trifluoro-6-(naphthalen-2-yl)hexan-2-one] |  | times higher inhibition of GVIA iPLA2 than inhibitor 2 [1]: 7 times
O=C(CCCCc1ccccc1)C(F)(F)C(F)(F)F [compound 2, 1,1,1,2,2-pentafluoro-7-phenylheptan-3-one] |  | inhibition at 0.091 mole fraction (read-out: GVIA iPLA2 % Inhibition): 99.4 ± 0.1%
O=C(/C=C/C=C/c1ccccc1)C(F)(F)C(F)(F)F [compound 10, (4E,6E)-1,1,1,2,2-Pentafluoro-7-phenylhepta-4,6-dien-3-one] | 22 | 
